Values of other authors, collected in US20100105750A1, “STABLE METRONIDAZOLE GEL FORMULATIONS” (NYCOMED US INC., priority 2008, published 2010).

- water soluble: 4 g/100 mL
Structure (SMILES): OCc1ccccc1 [benzyl alcohol]
